Laboratory results published in PubChem BioAssay (NCI).
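How tested: cells in 96-well plates exposed to compound for 48 hours at five concentrations. GI50 marks 50% less growth. TGI is the concentration that stops growth completely.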

Key:
Test in all cases: NCI anticancer screen, dose series, 48 h
A498 renal = system: A498 renal
CAKI-1 renal = system: CAKI-1 renal
CCRF-CEM leukemia = system: CCRF-CEM leukemia
DU-145 prostate = system: DU-145 prostate
HCT-116 colon = system: HCT-116 colon
HOP-62 NSCLC = system: HOP-62 NSCLC
M14 melanoma = system: M14 melanoma
OVCAR-3 ovarian = system: OVCAR-3 ovarian
SK-MEL-5 melanoma = system: SK-MEL-5 melanoma
UACC-257 melanoma = system: UACC-257 melanoma

Compound	GI50 (A498 renal) [µM]	TGI (A498 renal) [µM]	GI50 (CAKI-1 renal) [µM]	TGI (CAKI-1 renal) [µM]	GI50 (CCRF-CEM leukemia) [µM]	TGI (CCRF-CEM leukemia) [µM]	GI50 (DU-145 prostate) [µM]	TGI (DU-145 prostate) [µM]	GI50 (HCT-116 colon) [µM]	TGI (HCT-116 colon) [µM]	GI50 (HOP-62 NSCLC) [µM]	TGI (HOP-62 NSCLC) [µM]	GI50 (M14 melanoma) [µM]	TGI (M14 melanoma) [µM]	GI50 (OVCAR-3 ovarian) [µM]	TGI (OVCAR-3 ovarian) [µM]	GI50 (SK-MEL-5 melanoma) [µM]	TGI (SK-MEL-5 melanoma) [µM]	GI50 (UACC-257 melanoma) [µM]	TGI (UACC-257 melanoma) [µM]
Cc1ccc(-c2cc(-c3ccc(C)cc3)nc(N3CCN(CCNc4ccnc5cc(Cl)ccc45)CC3)n2)cc1	9.69	30.4	7.56	16.4	1.77	> 50	2.06	8.5	1.66	6.91	1.58	6.52	1.9	8.45	1.29	3.26	6.65	18.3	1.91	6.88
Clc1ccc2nc(Cl)c3ccccc3c2c1	2.22	9.85	> 100	> 100	20.6	52.9	58.5	> 100	4.34	22.1	11.5	64.2	> 100	> 100	24.7	> 100	> 100	> 100	> 100	> 100
CCOc1cc2c(=O)oc3c(OC)ccc4ccc(c1OC)c2c43		> 100		> 100		> 100		> 100		20.4		> 100		> 100		> 100		> 100		> 100
O=C(Cn1c(C(=O)c2ccc(Cl)cc2)nc(-c2ccccc2)c1-c1ccccc1)c1ccc(Cl)cc1	> 100	> 100	> 100	> 100	> 100	> 100	> 100	> 100	> 100	> 100	> 100	> 100	> 100	> 100	> 100	> 100	> 100	> 100	> 100	> 100
Nc1nc(-c2ccc(Cl)cc2)cc(-c2ccc(Cl)cc2)c1-c1nc2ccccc2o1	19.6	34.6	20	35.9	11.4	34.1	17.2	36.6	14.8	30.5	13	27.1	17.4	34.4	18.6	35.5	15.4	29.9	18.4	37.8
O=c1c2c(=NCCN3CCCC3)cc3c(=O)n(CCCN4CCOCC4)c(=O)c4ccc(c(O)n1CCCN1CCOCC1)c2c4-3	0.173	0.981	0.218	1.41	0.0532	1.59	0.088	1.67	< 0.0174	1.09	0.0577	0.832	0.323	1.19	0.0994	1	0.442	0.918	0.707	3.76
OCCn1cc(-c2cnc3nnn(Cc4ccc5ncccc5c4)c3n2)cn1	34.3	> 100	> 100	> 100	> 100	> 100	> 100	> 100	> 100	> 100	> 100	> 100	> 100	> 100	> 100	> 100	> 100	> 100	> 100	> 100
Fc1cccc(Cl)c1Cn1c(-c2c(F)cccc2Cl)nc2ccccc21	19.2	36.6	24	47.5	26.2	> 100	24.6	56.1	34.4	> 100	23.2	50.6	19.4	53.9	17.4	60.2	11.6	29.8	12.9	28.6
O=C(Nc1ccc(Nc2ccncc2)cc1)c1ccc(Nc2ccnc3ccc([N+](=O)[O-])cc23)cc1[N+](=O)[O-]	24.2	> 62.2	> 39.6	> 83.2	18.6	> 50.6	5.55	25.5	23.7	> 100	24.8	> 100	21.9	> 100	24.7	> 89.5	25.8	> 100	11.3	29.5
O=C1NC(=O)[C@@H](c2c[nH]c3ccccc23)[C@@H]1c1c[nH]c2ccccc12	> 25	> 25	> 25	> 25	> 25	> 25	> 25	> 25	> 25	> 25	> 25	> 25	> 25	> 25	> 25	> 25	> 25	> 25	> 25	> 25
CN1CCN(c2ccc3nc(-c4[nH]ncc4Nc4ncnc5c4OCCCN5)[nH]c3c2)CC1	< 0.013	0.0341	< 0.01	0.0805	< 0.01	1.36	< 0.0118	0.482	< 0.01	1.09	0.0101	0.062	< 0.0115	0.0706	< 0.01	0.0422	0.0204	0.0976	0.0252	0.213
Nc1nccc2c1ccn2-c1cccc(NC(=O)c2ccc(N3CCOCC3)c(C(F)(F)F)c2)c1	0.304	2.05	0.531	> 19	1.01	> 50	1.22	4.15	0.677	8.66	1.27	> 25.8	0.788	7.6	0.318	1.41	0.386	1.75	2.08	31.1
CC(=O)Nc1ccc(-c2csc(Nc3cccc(-c4csc(-c5ccccc5)n4)c3)n2)cc1	46	> 50	17.5	> 50	> 50	> 50	22.2	> 50	18.4	> 50	> 50	> 50	20.5	> 50	20.4	> 50	18.7	> 50	19	> 50
O=C1CCSC(=S)N1c1ccc(Br)c(Cl)c1		48.4		77.4		> 100		> 100		> 100		> 100		> 100		> 100		35.9		37.8
COc1ccc(-c2nnc(SCC(=O)Nc3ccc(C(=O)/C=C/c4cc(OC)c(OC)c(OC)c4)cc3)n2-c2ccccc2)cc1OC	5	> 10	8.57	> 10	2.84	> 10	3.86	> 10	0.433	> 10	8.52	> 10	3.33	> 10	3.18	> 10	7.79	> 10	> 10	> 10
NC(=O)c1sc(-n2cnc3ccc(C(F)(F)F)cc32)cc1OCc1ccccc1Br	2.24	16.2	15.3	> 25	0.685	> 25	0.942	3.89	1.43	> 25	0.916	> 10.5	1.89	> 25	0.762	2.55	0.916	6.78	2.74	> 25
CCOC(=O)Cn1c(-c2nonc2NC(=O)c2ccccc2F)nc2ccccc21	68	> 100	2.33	> 100	> 100	> 100	4.96	> 100	0.434	> 100	10.8	47.7	74.1	> 100	7.07	> 100	0.539	> 100	8.78	> 100
Cc1ccc2nc3c(n2c1)C(=O)C(=O)c1ccccc1-3	1.37	2.71	1.28	2.71	0.429	3.37	0.288	1.12	0.188	1.09	0.353	0.961	0.183	0.34	0.285	1.07	0.112	0.244	0.146	0.382
CCCCCCCCCCC[C@@H](C[C@H]1OC(=O)[C@H]1CCCCCC)OC(=O)[C@@H](CC(C)C)NC=O	4.64	29.9	5.5	> 100	1.31	76.4	16.7	> 100	3.14	19.3	4.14	29.5	6.1	87	3.17	14.5	2.8	10.4	38.4	> 100
O=C(Nc1ccc(Oc2ccc(NC(=O)Nc3ccc([N+](=O)[O-])cc3)cc2)cc1)Nc1ccc([N+](=O)[O-])cc1	1.97	7.23	2.34	7.55	0.61	3.22	2.44	> 100	1.17	9.19	2.64	7.96	2.37	11.7	2.12	> 30.3	1.66	3.32	2.82	> 26
O=C(CCN1CCCC1)Nc1ccc2c(NCCc3ccccc3)c3ccccc3nc2c1	0.422	1.8	1.5	5.68	0.311	1.77	0.367	1.36	0.354	1.38	0.389	1.76	0.5	1.81	0.454	1.73	1.27	2.55	1.02	2.71
O=C(NO)c1ccc(Cn2c(=O)n(-c3ccccc3)c(=O)c3ccccc32)cc1	0.418	2.09	2.81	12.3	0.457	> 100	0.773	> 100	0.324	0.898	1.32	3.24	0.539	2.09	1.58	7.87	1.06	2.3	0.811	2.78
CCCCCCCCCCCC1=NC(C)(C)CN1CC(C)O (stereo not given)	10	22.8	2.97	12.2	2.85	11.9	11.7	24	2.06	4.9	4.75	17.4	1.62	3.1	3.35	12.7	5.65	18.1	2.81	7.49
COc1ccc(/C=N\NC(=O)c2ccc3nc(-c4ccc(Cl)cc4)[nH]c3c2)cc1	2.45	9.87	2.1	6.03	4.9	> 100	1.98	4.61	2.14	5.12	1.88	6.37	2.41	7.76	2.28	5.14	1.89	3.88	3.27	10.1
O=C(Oc1ccccc1Cl)c1ccccc1Nc1cccc(C(F)(F)F)c1	24.8	54.8	20.7	49	3.42	12.3	31.8	89	14.7	40.9	24.6	70.5	13.9	38.9	15.4	32.9	14.8	30.8	26.4	76
